Results on 5 molecules are retold here after ChEMBL document CHEMBL3046364, “Influence of 1, 3, 5-Triazine Compounds on Ammonia Oxidizing Activity of Cell-Free Extracts from Nitrosomonas europaea” (J Pestic Sci, 2002).

In this test the test system is Nitrosomonas europaea. Kind of test: Inhibition of ammonia oxidation in cell suspensions of Nitrosomonas europaea ATCC 25978 assessed as oxygen consumption. The test is classed as functional, organism-based. The note with it: read-out: pI50 (converted).

SMILES strings stand for the structures.

In the case of `CCNc1nc(C)nc(C(Cl)(Cl)Cl)n1`, the IC50 was 2 µM.

For the molecule `CCCCCCCCCCCCCCNc1nc(C)nc(C(Cl)(Cl)Cl)n1`, the IC50 was 21.9 µM.

Consider `Nc1nc(C(Cl)(Cl)Cl)nc(C(Br)(Br)Br)n1`, for which the IC50 is 0.0759 µM.

`Cc1nc(N)nc(C(Cl)(Cl)Cl)n1`: the IC50 was 4.9 µM.

Take `CNc1nc(C)nc(C(Cl)(Cl)Cl)n1`: the IC50 was 3.55 µM.
